Experimental data from the NIST ThermoML archive (doi:10.1021/je900347f).
Numbers after ± are expanded uncertainties.

Experiment: excess molar enthalpy (molar enthalpy of mixing); xn = mol fraction of the nth substance listed
Conditions: 308.15 K, 101 kPa, Liquid, Flow calorimetry

C1CCNCC1 [piperidine] + C1CCCCC1
Conditions | excess molar enthalpy [kJ/mol]
x2 = 0.101 | 0.258 ± 0.011
x2 = 0.201 | 0.476 ± 0.012
x2 = 0.3 | 0.65 ± 0.012
x2 = 0.4 | 0.78 ± 0.012
x2 = 0.499 | 0.845 ± 0.012
x2 = 0.601 | 0.847 ± 0.012
x2 = 0.679 | 0.795 ± 0.012
x2 = 0.801 | 0.635 ± 0.012
x2 = 0.901 | 0.391 ± 0.012

C1CCNCC1 [piperidine] + C1CCOCC1
Conditions | excess molar enthalpy [kJ/mol]
x2 = 0.102 | 0.104 ± 0.01
x2 = 0.196 | 0.182 ± 0.01
x2 = 0.301 | 0.243 ± 0.01
x2 = 0.397 | 0.279 ± 0.01
x2 = 0.497 | 0.292 ± 0.01
x2 = 0.598 | 0.284 ± 0.01
x2 = 0.7 | 0.251 ± 0.01
x2 = 0.801 | 0.194 ± 0.01
x2 = 0.893 | 0.116 ± 0.01

C1CCOCC1 [tetrahydropyran] + C1CCCCC1
Conditions | excess molar enthalpy [kJ/mol]
x2 = 0.101 | 0.157 ± 0.011
x2 = 0.2 | 0.294 ± 0.011
x2 = 0.3 | 0.412 ± 0.011
x2 = 0.4 | 0.49 ± 0.011
x2 = 0.499 | 0.526 ± 0.011
x2 = 0.606 | 0.519 ± 0.011
x2 = 0.699 | 0.461 ± 0.011
x2 = 0.8 | 0.355 ± 0.011
x2 = 0.9 | 0.198 ± 0.011
